Experiments:
Format in all cases: cell-based, human
[1] = test system: HCT-116 cells, grown in spheroid condition; experiment: Apoptosis assay (annexin V/propidium iodide and acridine orange/ethidium bromide); settings: annexin V labeling and acridine orange/ethidium bromide staining, 100 μM, 24 hours, vs vehicle
Protocol: Apoptosis Assay. Human colon cancer HCT-116 cells, grown in spheroid condition were treated with vehicle or NSGMs for 24 hours. Following which cells were trypsinized and single cells were re-suspended at 10^6 cells/mL in PBS buffer. Two different methods were used to assess apoptosis induction. In the first methods, cells were incubated with propidium iodide and Annexin V-APC (ebioscience) and flow cytometric analyses were performed as above. […] Briefly, a small volume of cell suspension was mounted on a glass slide and incubated with 1 μl of AO/EB solution and mixed gently just prior to microscopy and quantification. At least 500 cells in 10-15 fields were examined in each sample using Nikon ECLIPSE E800M fluorescence microscope using 20× objective. […] The data was expressed as apoptosis index=[([apoptotic cells (NSGMs)/total cells (NSGMs)]/[apoptotic cells (vehicle)/total cells (vehicle)]).

[2] = test system: HT-29 cells; experiment: Primary (1°) colonosphere formation assay, HT-29 (Screen 1); settings: 100 μM
Protocol: Primary (1°) Colonosphere Formation Assay. For primary sphere formation, cells were plated in non-treated, low adhesion, 96 wells plate at the concentration of 100 cells/100 μL/well in stem cell media (SCM) that consisted of DMEM:F12:AA (Gibco), supplemented with 1×B27 (Gibco), 20 ng/mL epidermal growth factor and 10 ng/mL fibroblast growth factor (Sigma). After four hour of incubation, vehicle (control) or NSGM at the desired concentrations were added to each well (at least in triplicates for each sample). On day five, numbers of spheres ranging from […] in diameter were counted using phase contrast microscope and percent inhibition was calculated compared to control.
In this screen, sulfated NSGMs that inhibit HT-29 growth under spheroid conditions, but not under monolayer conditions, were then assessed for retention of 2° and 3° spheroid growth inhibition profiles in the absence of NSGM. The latter screen is of particular importance as primary spheroid growth although selective for CSCs doses not distinguish between non self-renewing progenitors and self-renewing CSCs. […] These 11 NSGMs belonged to G2, G4, G11 and G12 scaffolds but only four of the six G2 molecules, one of the two G4, four of the seven G11 and two of the five G12 molecules satisfied the first screen.

[3] = test system: CSC markers CD44, CD133, EpCAM, LGR5, CXCR-4; experiment: Western blot of CSC markers in HT-29 spheroids; settings: HT-29 spheroids, 100 μM, Western blot densitometry vs vehicle
Protocol: (§1) Western Blotting Analysis. Western blot analysis was performed according to the standard protocol described in the literature. Briefly, HT-29 cells were plated in serum-free SCM in a low adhesion 6-well plate to obtain spheroids. Mature spheroids were treated on day 4 after plating, with vehicle or NSGMs for indicated time and cells were solubilized in lysis buffer (20 mM Na3PO4, 100 mM NaCl, 2 mM EDTA, 1% Nonidet P-40, 2.5 mM Na3VO4) containing protease (Roche) as well as phosphatase inhibitor cocktails (Sigma). Following centrifugation at 14,000 g for 15 min, the supernatant was used for Western blot analysis. In all analyses, protein concentration was determined by the Bio-Rad Protein Assay kit (Bio-Rad). Approximately 25-50 μg of protein was separated by polyacrylamide gel electrophoresis and was transferred to PVDF membrane (Bio-Rad). Blocking was done with 5% low fat milk powder for 1 hr followed by overnight incubation with primary antibody (dilution 1:1000): anti-CD44 (Cell Signaling), anti-EpCAM (Cell Signaling), anti-LGR5 (Origene), anti-CD133 ((Miltenyi Biotec), anti-CXCR4 (Abeam), anti-OCT4 (Cell Signaling), anti-BMI-1 (Millipore), anti-c-MYC (Millipore) and anti-CK20 (Abeam). This was followed by incubation with appropriate secondary antibody and protein bands were visualized using the enhanced chemiluminescence detection system and imaged with LAS-3000 Imaging System (FUJIFILM). Densitometry was determined by AIDA image analyzer software (Raytest) and results were calculated as relative intensity compared to control. All experiments were performed at least three times.

[4] = test system: self-renewal factors OCT4, BMI-1, c-MYC; experiment: Western blot of self-renewal factors in spheroids; settings: 100 μM, HT-29
Protocol: as §1

[5] = test system: LGR5; experiment: Flow cytometry analysis of CSC markers in HT-29 spheroids; settings: 100 μM, vs vehicle-treated controls
Protocol: Flow Cytometry Analysis. Human colon cancer HT-29 cells, grown in spheroid or monolayer condition were treated with vehicle or NSGMs for 24 hours, were trypsinized and single cells were re-suspended at 10^6 cells/mL in PBS buffer. Cells were incubated with fluorophore conjugated antibody for 30 minutes at 4° C. and washed once with PBS buffer prior to analysis. Following antibody and dilution were used: LGR5-PE) (Dilution 1:50, Origene), DCLK1 (Dilution 1:33, Abeam). Cell sorting was performed using FACSAria™ II High-Speed Cell Sorter (BD Biosciences) and data were analyzed with FCS Express 4 Flow Cytometry software (De-Novo Software).

O=c1cc(-c2ccc(OS(=O)(=O)O)c(OS(=O)(=O)O)c2)oc2cc(OS(=O)(=O)O)cc(OS(=O)(=O)O)c12 [G1.4]
induction of apoptosis in spheroid cells [1]: no such effects
Screen 1 outcome (spheroid versus monolayer growth inhibition) [2]: completely failed
reduction of expression of CSC markers (CD44, CD133, EpCAM, LGR5, CXCR-4) [3]: no effect
BMI-1 expression [4]: no such changes
c-MYC expression [4]: no such changes
reduction in LGR5 (hi) cells [5]: < 15%

— patent publication US9850221B2, “Sulfated and unsulfated flavonoid oligomers as cancer therapeutics” (VIRGINIA COMMONWEALTH UNIVERSITY, priority 2013, dated 2017)
